ChEMBL document CHEMBL4814026, “Discovery of novel reversible monoacylglycerol lipase inhibitors via docking-based virtual screening” (Bioorg Med Chem Lett, 2021)
One block for each molecule: values may come before it. Calls of active or inactive are those of the source. The rule behind the calls is not given here.

How the values were obtained:
Monoglyceride lipase [1] = biological target: T1, Monoglyceride lipase (Homo sapiens, UniProt Q99685); test: Inhibition of MAGL (unknown origin)
T1 sequence (Q99685 whole entry): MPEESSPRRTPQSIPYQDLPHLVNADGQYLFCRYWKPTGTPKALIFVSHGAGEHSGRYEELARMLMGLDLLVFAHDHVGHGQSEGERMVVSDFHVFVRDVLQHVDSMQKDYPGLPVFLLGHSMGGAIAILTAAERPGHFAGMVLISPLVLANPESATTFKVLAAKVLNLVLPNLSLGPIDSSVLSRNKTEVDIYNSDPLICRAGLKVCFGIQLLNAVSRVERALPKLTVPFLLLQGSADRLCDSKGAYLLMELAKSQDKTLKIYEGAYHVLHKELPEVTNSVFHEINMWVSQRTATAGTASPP

Monoglyceride lipase [2] = biological target: T2, Monoglyceride lipase (Rattus norvegicus, UniProt Q8R431); test: Inhibition of recombinant rat MAGL by LC-MS analysis
T2 sequence (Q8R431 whole entry): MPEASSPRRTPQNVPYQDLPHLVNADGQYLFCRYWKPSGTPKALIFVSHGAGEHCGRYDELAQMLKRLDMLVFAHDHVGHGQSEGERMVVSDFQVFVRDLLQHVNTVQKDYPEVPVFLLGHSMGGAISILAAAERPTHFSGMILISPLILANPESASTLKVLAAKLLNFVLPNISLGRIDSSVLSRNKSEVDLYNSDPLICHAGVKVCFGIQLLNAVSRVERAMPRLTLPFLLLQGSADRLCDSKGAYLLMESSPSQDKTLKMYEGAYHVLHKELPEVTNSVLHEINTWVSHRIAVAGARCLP

Monoglyceride lipase [3] = biological target: T1, Monoglyceride lipase; test: Binding affinity to MAGL (unknown origin) by SPR analysis
[4] = biological target: T3, Monoglyceride lipase (Homo sapiens) (UniProt Q99685); test: Reversible inhibition of MAGL (unknown origin)
T3 sequence (whole entry): T1 sequence (Q99685 whole entry)

[5] = biological target: T4, Monoglyceride lipase (Mus musculus) (UniProt O35678); test: Inhibition of MAGL in mouse RAW264.7 cells assessed as increase in 2-AG level at 30 uM; type: cell-based
T4 sequence (whole entry): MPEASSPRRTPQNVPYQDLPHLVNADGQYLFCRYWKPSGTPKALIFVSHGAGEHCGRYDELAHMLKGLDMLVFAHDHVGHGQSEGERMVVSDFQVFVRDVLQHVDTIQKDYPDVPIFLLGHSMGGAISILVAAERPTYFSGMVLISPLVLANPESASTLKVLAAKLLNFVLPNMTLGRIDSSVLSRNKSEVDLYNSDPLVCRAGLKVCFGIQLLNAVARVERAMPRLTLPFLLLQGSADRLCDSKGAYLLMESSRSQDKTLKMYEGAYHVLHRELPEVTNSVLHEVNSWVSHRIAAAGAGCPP

RAW264.7 [6] = test: Antiinflammatory activity in mouse RAW264.7 cells assessed as reduction in LPS-induced IL-6 mRNA expression measured after 24 hrs by RT-PCR analysis; type: functional, cell-based; conditions: dose 20-40 µM
RAW264.7 [7] = test: Antiinflammatory activity in mouse RAW264.7 cells assessed as reduction in LPS-induced IL-1beta mRNA expression measured after 24 hrs by RT-PCR analysis; type: functional, cell-based; conditions: dose 20-40 µM
RAW264.7 [8] = test: Antiinflammatory activity in mouse RAW264.7 cells assessed as reduction in LPS-induced CCL-2 mRNA expression measured after 24 hrs by RT-PCR analysis; type: functional, cell-based; conditions: dose 20-40 µM
[9] = biological target: T3, Monoglyceride lipase (Homo sapiens); test: Inhibition of MAGL (unknown origin) in presence of DTT

SMILES: O=C(C1CCN(c2nc3ncccc3s2)CC1)N1CCN(Cc2ccc3c(c2)OCO3)CC1
IC50 (Monoglyceride lipase [1]): > 33300 nM

SMILES: COC(=O)[C@]1(C)CC[C@]2(C)CC[C@]3(C)C4=CC=C5C(=CC(=O)C(O)=C5C)[C@]4(C)CC[C@@]3(C)[C@@H]2C1 [PRISTIMERIN]
IC50 (Monoglyceride lipase [2]): 93 nM

SMILES: O=C(c1ccc2nc(N3CCCCC3)sc2c1)N1CCN(c2ccccn2)CC1
IC50 (Monoglyceride lipase [1]): > 33300 nM

SMILES: O=C(C1CCCN(c2nc3ncccc3s2)C1)N1CCN(Cc2ccc3c(c2)OCO3)CC1 (configuration not stated)
IC50 (Monoglyceride lipase [1]): > 33300 nM

SMILES: CC(C)=CCC[C@@H](C)[C@@H]1CC[C@]2(C)C3=C(CC[C@@]12C)[C@@]1(C)CC[C@H](O)C(C)(C)[C@@H]1CC3 [EUPHOL]
IC50 (Monoglyceride lipase [2]): 315 nM

More lines, main results first:

IC50 (Monoglyceride lipase [1]): 6580 nM
SMILES: COc1cccc(N2CCN(C(=O)c3ccc4nc(N5CCC(C)CC5)sc4c3)CC2)c1

IC50 (Monoglyceride lipase [1]): > 33300 nM
SMILES: COc1cc(N2CCN(C(=O)c3ccc4nc(N5CCC(C)CC5)sc4c3)CC2)cc(OC)c1OC

IC50 (Monoglyceride lipase [1]): 2870 nM
SMILES: CC1CCN(c2nc3ccc(C(=O)N4CCN(Cc5ccccc5)CC4)cc3s2)CC1

IC50 (Monoglyceride lipase [1]): 5800 nM
SMILES: Cc1ccc(Cl)cc1N1CCN(C(=O)c2ccc3nc(N4CCC(C)CC4)sc3c2)CC1

IC50 (Monoglyceride lipase [1]): 2840 nM
Kd (Monoglyceride lipase [3]): 710 nM
inhibition [4]: Active
inhibition [5]: Active
inhibition [9]: Active
SMILES: COc1ccc(N2CCN(C(=O)c3ccc4nc(N5CCC(C)CC5)sc4c3)CC2)cc1
Activity (RAW264.7 [6]): Dose-Dependent Effect
Activity (RAW264.7 [7]): Dose-Dependent Effect
Activity (RAW264.7 [8]): Dose-Dependent Effect
